{"source": "paper PMC12529164", "about": "“Design, Synthesis, Structure–Activity Relationships, and Preliminary Anticancer Properties of Menthol-Modified Coumarin Esters and 3,4-Dihydrocoumarin Derivatives” (ACS Omega, 2025)", "key": {"HaCaT [1]": {"system": "HaCaT", "experiment": "MTT cytotoxicity assay, normal cells", "assay_type": "cell-based", "conditions": "HaCaT, 72 h, human immortal keratinocytes (normal cells)", "experimental": "(§1) The human primary (SW480) and metastatic (SW620) colon cancer, metastatic prostate cancer (PC3), breast adenocarcinoma (MDA-MB-231) and human immortal keratinocyte (HaCaT) cell lines were recruited from the American Type Culture Collection (ATCC). The cells were cultured in the recommended medium according to protocols (RPMI 1640 for PC3, MEM for SW480 and SW620, as well as DMEM for MDA-MB-231 and HaCaT cells) with addition of 10% FBS, penicillin (100 U/mL), and streptomycin (100 μg/mL) and cultured in 37 °C/5% CO2 in a humidified incubator. Then, the cells were passaged at a confluence of 80–90% by a treatment with 0.25% trypsin (Gibco Life Technologies) and used for studies.\n(§2) They were added to 96-well plates with seeded normal and cancer cells (1 × 10^4 cells per well) and incubated for 72 h. MTT analysis was performed according to a previous study."}, "[2]": {"system": "tested cancer cell lines (SW480, SW620, PC3, MDA-MB-231)", "experiment": "MTT assay, mean over tested cancer cell lines", "assay_type": "cell-based", "conditions": "Homo sapiens, mean of the four cancer cell lines", "experimental": "They were added to 96-well plates with seeded normal and cancer cells (1 × 10^4 cells per well) and incubated for 72 h. MTT analysis was performed according to a previous study. […]"}, "SW480 [3]": {"system": "SW480", "experiment": "Annexin V-FITC/PI flow cytometry", "assay_type": "cell-based, human", "conditions": "SW480, compound at IC50, 72 h, mean", "experimental": "(§3) The apoptotic and necrotic cells treated with derivatives 2b, 4a, 4b were detected using FITC Annexin V Apoptosis Detection Kit I (BD Biosciences Pharmingen). Briefly, cells (2 × 10^5 cells/well) were seeded in 6-well plates in supplemented medium. […] Then cells were harvested, washed, and labeled with Annexin V-FITC and propidium iodide (PI) according to the manufacturer’s protocol. The stained cells were analyzed by flow cytometry. The cells were identified as early apoptotic (Annexin V+/PI−) or late apoptotic/necrotic (Annexin V+/PI+)."}, "HaCaT [4]": {"system": "HaCaT", "experiment": "Annexin V-FITC/PI flow cytometry", "assay_type": "cell-based, human", "conditions": "compound at IC50, 72 h, mean", "experimental": "as §3"}, "PC3 [5]": {"system": "PC3", "experiment": "Annexin V-FITC/PI flow cytometry", "assay_type": "cell-based, human", "conditions": "PC3, compound at IC50, 72 h, mean", "experimental": "as §3"}, "SW620 [6]": {"system": "SW620", "experiment": "Annexin V-FITC/PI flow cytometry", "assay_type": "cell-based, human", "conditions": "SW620, compound at IC50, 72 h", "experimental": "as §3"}, "IL-6 in SW620 cells": {"system": "IL-6 in SW620 cells", "experiment": "Interleukin-6 ELISA", "assay_type": "cell-based, human", "conditions": "SW620, compound at IC50, 72 h", "experimental": "(§4) The concentration of Interleukin-6 (IL-6) was measured in cell culture supernatant using Interleukin IL-6 High Sensitivity ELISA kit (Diaclon SAS, Besancon Cedex, France). Cells (1 × 10^5 cells/well) were seeded in 12-well plates with medium for 24 h. […] After this incubation, the supernatants were collected and 100 μL of supernatant samples, control solutions and blank were added to precoated ELISA plate with the preceding plotting of the standard curve. Then 50 μL of diluted biotinylated antihuman interleukin-6 antibody was added and incubated at room temperature for 3 h. Afterward, the plate was washed three times and 100 μL streptavidin-HRP solution was added to each well. After 30 min incubation, the plate was washed again three times and 100 μL of tetramethylbenzidine (TMB) solution was added to each well. The plate was incubated for 15 min in the dark. The reaction was stopped by adding 100 μL of H2SO4 solution. The absorbance was estimated using a spectrophotometer at 450 nm (Microplate Spectrophotometer Thermo Scientific Multiskan GO)."}, "IL-6 in HaCaT cells": {"system": "IL-6 in HaCaT cells", "experiment": "Interleukin-6 ELISA", "assay_type": "cell-based, human", "conditions": "compound at IC50, 72 h", "experimental": "as §4"}, "IL-6 in PC3 cells": {"system": "IL-6 in PC3 cells", "experiment": "Interleukin-6 ELISA", "assay_type": "cell-based, human", "conditions": "PC3, compound at IC50, 72 h", "experimental": "as §4"}, "IL-6 in SW480 cells": {"system": "IL-6 in SW480 cells", "experiment": "Interleukin-6 ELISA", "assay_type": "cell-based, human", "conditions": "SW480, compound at IC50, 72 h", "experimental": "as §4"}, "Trypan blue assay": {"experiment": "Trypan blue assay", "assay_type": "cell-based, human", "conditions": "human, HaCaT cells, compound at IC50, 72 h, mean", "experimental": "(§5) The total cell count was assessed by trypan blue exclusion dye assay using automated cell counter (Countess Invitrogen). Untreated cells were used as the control. Each experiment was repeated 5 times."}, "SW480 [7]": {"system": "SW480", "experiment": "Trypan blue assay", "assay_type": "cell-based, human", "conditions": "SW480, compound at IC50, 72 h", "experimental": "as §5"}, "HaCaT [8]": {"system": "HaCaT", "experiment": "Trypan blue assay", "assay_type": "cell-based, human", "conditions": "compound at IC50, 72 h", "experimental": "as §5"}, "PC3 [9]": {"system": "PC3", "experiment": "Trypan blue assay", "assay_type": "cell-based, human", "conditions": "PC3, compound at IC50, 72 h", "experimental": "as §5"}, "SW620 [10]": {"system": "SW620", "experiment": "Trypan blue assay", "assay_type": "cell-based, human", "conditions": "SW620, compound at IC50, 72 h", "experimental": "as §5"}, "SW480 [11]": {"system": "SW480", "experiment": "MTT cytotoxicity assay", "assay_type": "cell-based, human", "experimental": "as §1, §2"}, "PC3 [12]": {"system": "PC3", "experiment": "MTT cytotoxicity assay", "assay_type": "cell-based, human", "experimental": "as §1, §2"}, "MDA-MB-231": {"system": "MDA-MB-231", "experiment": "MTT cytotoxicity assay", "assay_type": "cell-based, human", "experimental": "as §1, §2"}, "SW620 [13]": {"system": "SW620", "experiment": "MTT cytotoxicity assay", "assay_type": "cell-based, human", "experimental": "as §1, §2"}, "[14]": {"conditions": "SI = IC50 for normal cell line (HaCaT)/IC50 cancer cell line"}}, "note": "“And” between values parts separate entries of the source, which are not always exact repeats. Identical values can stand only once. Like-named read-outs stand apart in the source and are kept apart here."}
{"smiles": "CC(C)[C@@H]1CC[C@@H](C)C[C@H]1OC(=O)C1C(=O)Oc2ccccc2C1P(=O)(c1ccccc1)c1ccccc1", "note": "(mixture of isomers) [Compound 4a, (1R,2S,5R)-2-Isopropyl-5-methylcyclohexyl-4-(diphenylphosphoryl)-2-oxochromane-3-carboxylate]", "values": [{"measurement": "IC50", "setting": "HaCaT [1]", "value": "15.1 ± 2.76", "unit": "µM"}, {"measurement": "IC50", "setting": "[2]; Table S7, >100 entered as 100, read-out: mean anticancer IC50", "value": 11.6, "unit": "µM"}, {"measurement": "IC50", "setting": "[2]; read-out: average IC50 against tested cancer cell lines", "value": 11.6, "unit": "µM"}, {"measurement": "Early apoptosis [%]", "setting": "SW480 [3]", "value": 1.95, "unit": "%"}, {"measurement": "Late apoptosis [%]", "setting": "SW480 [3]", "value": 48.95, "unit": "%"}, {"measurement": "Necrosis [%]", "setting": "SW480 [3]", "value": 1.80, "unit": "%"}, {"measurement": "Early apoptosis [%]", "setting": "HaCaT [4]", "value": 8.90, "unit": "%"}, {"measurement": "Late apoptosis [%]", "setting": "HaCaT [4]", "value": 3.40, "unit": "%"}, {"measurement": "Necrosis [%]", "setting": "HaCaT [4]", "value": 0.08, "unit": "%"}, {"measurement": "Early apoptosis [%]", "setting": "PC3 [5]", "value": 48.3, "unit": "%"}, {"measurement": "Late apoptosis [%]", "setting": "PC3 [5]", "value": "44.75% and 44.8%"}, {"measurement": "Necrosis [%]", "setting": "PC3 [5]", "value": 0.65, "unit": "%"}, {"measurement": "Early apoptosis [%]", "setting": "SW620 [6]; mean", "value": 11.75, "unit": "%"}, {"measurement": "Late apoptosis [%]", "setting": "SW620 [6]; mean", "value": 8.80, "unit": "%"}, {"measurement": "Necrosis [%]", "setting": "SW620 [6]; mean", "value": 1.45, "unit": "%"}, {"measurement": "both late apoptosis and necrosis", "setting": "SW620 [6]; sum", "value": 10.25, "unit": "%"}, {"measurement": "IL-6 concentration", "setting": "IL-6 in SW620 cells; ELISA", "value": "0.9 ± 0.27", "unit": "pg/mL"}, {"measurement": "reduction of IL-6 level", "setting": "IL-6 in SW620 cells; vs control", "value": 69.1, "unit": "%"}, {"measurement": "IL-6 concentration", "setting": "IL-6 in HaCaT cells; ELISA", "value": "7.5 ± 1.13", "unit": "pg/mL"}, {"measurement": "reduction of IL-6 concentration", "setting": "IL-6 in HaCaT cells; vs control", "value": 26.5, "unit": "%"}, {"measurement": "IL-6 concentration", "setting": "IL-6 in PC3 cells; ELISA", "value": "0.6 ± 0.09", "unit": "pg/mL"}, {"measurement": "reduction of IL-6 level", "setting": "IL-6 in PC3 cells; vs control", "value": 87.2, "unit": "%"}, {"measurement": "IL-6 concentration", "setting": "IL-6 in SW480 cells; ELISA", "value": "0.9 ± 0.33", "unit": "pg/mL"}, {"measurement": "reduction of IL-6 level", "setting": "IL-6 in SW480 cells; vs control", "value": 77.6, "unit": "%"}, {"measurement": "viability at 72 h", "setting": "Trypan blue assay", "value": 96, "unit": "%"}, {"measurement": "cell number", "setting": "SW480 [7]; mean", "value": "0.72 x106"}, {"measurement": "viability (%)", "setting": "SW480 [7]; mean", "value": 93.66, "unit": "%"}, {"measurement": "reduction of number of live cells", "setting": "SW480 [7]; vs control", "value": 79.9, "unit": "%"}, {"measurement": "cell number", "setting": "HaCaT [8]; mean", "value": "4.26 x106"}, {"measurement": "reduction of number of cells", "setting": "HaCaT [8]; vs control", "value": 31.9, "unit": "%"}, {"measurement": "cell number", "setting": "PC3 [9]; mean", "value": "2.5 x106"}, {"measurement": "viability (%)", "setting": "PC3 [9]; mean", "value": 94.33, "unit": "%"}, {"measurement": "reduction of number of live cells", "setting": "PC3 [9]; vs control", "value": 62.1, "unit": "%"}, {"measurement": "cell number", "setting": "SW620 [10]; mean", "value": "1.86 x106"}, {"measurement": "viability (%)", "setting": "SW620 [10]; mean", "value": 98, "unit": "%"}, {"measurement": "reduction of number of live cells", "setting": "SW620 [10]; vs control", "value": 47.6, "unit": "%"}, {"measurement": "SI SW480", "setting": "SW480 [11]; [14]", "value": 3.28}, {"measurement": "IC50", "setting": "SW480 [11]; SW480, MTT, 72 h, human primary colon cancer", "value": "4.6 ± 1.01", "unit": "µM"}, {"measurement": "IC50", "setting": "PC3 [12]; PC-3, MTT, 72 h, human metastatic prostate cancer", "value": "9.8 ± 2.02", "unit": "µM"}, {"measurement": "SI PC3", "setting": "PC3 [12]; [14]", "value": 1.53}, {"measurement": "IC50", "setting": "MDA-MB-231; MDA-MB-231, MTT, 72 h, human breast adenocarcinoma", "value": "25.3 ± 4.59", "unit": "µM"}, {"measurement": "SI MDA-MB-231", "setting": "MDA-MB-231; [14]", "value": 0.60}, {"measurement": "SI SW620", "setting": "SW620 [13]; [14]", "value": 2.21}, {"measurement": "IC50", "setting": "SW620 [13]; SW-620, MTT, 72 h, human metastatic colon cancer", "value": "6.8 ± 0.55", "unit": "µM"}]}
